The text below walks through data of patent US7030251B2, “Modifications of the trometamol salt of R-thioctic acid as well as a process for their production” (Viatris GmbH & Co KG, priority 2001, dated 2006).

The nature of the data set: Angle of repose α as a measure of flowability and pourability. To be noted: determined according to R. Voigt, Lehrbuch der pharmazeutischen Technologie, 3rd Edition 1979, p. 165. Format: physicochemical. From the text: The angle of repose α of the modifications as a measure of the flowability and pourability is likewise different: [table]

The structures appear in SMILES notation. Structures can show the parent of a compound that is named as a salt.

With `O=C(O)CCCC[C@@H]1CCSS1` [Modification mixture A/B = 1:1, trometamol salt of R-thioctic acid], the “Angle of Repose α” value was 34°. As for `O=C(O)CCCC[C@@H]1CCSS1` [Modification B, trometamol salt of R-thioctic acid], the “Angle of Repose α” value came out at 32°. For the molecule `O=C(O)CCCC[C@@H]1CCSS1` [Modification A, trometamol salt of R-thioctic acid], the “Angle of Repose α” value came to 46°.
